Measurements published in US20240299424A1, “USE OF PHYTOCANNABINOIDS FOR TREATING ENDOMETRIAL CANCER AND ENDOMETRIOSIS” (INTEGRATIVE THERAPY DISCOVERY LAB S.R.L., priority 2021, published 2024).

Key:
Ishikawa cells = test: MTT cell viability assay, Ishikawa type I endometrial cancer cell line; type: cell-based, human; conditions: 72 hours; for cytotoxicity (cell viability, % vs vehicle) in combination: in double with cannabidiol (10, 15 and 20 microM CBD), FIG. 3-4; for cytotoxicity (cell viability, % vs vehicle): phytocannabinoid alone, FIG. 1; for cytotoxicity (cell viability, % vs vehicle) in combination with chemotherapeutic drugs: with paclitaxel (PAC), doxorubicin (DOX) and cisplatin (CIS), FIG. 7-10
Protocol: (§1) Ishikawa is a well differentiated type I cell line, was purchased from Sigma Aldrich (Milan, Italy). Ishikawa cells were grown in EMEM medium (Lonza, Milan, Italy), supplemented with 5% fetal bovine serum (FBS), 2 mM/L of glutamine, 100 IU/ml of penicillin, and […] of streptomycin. Primary EC cells PCEM004A, poorly differentiated mixed type I/II cell line, was grown in RPMI1640, supplemented with 20% FBS, 2 mM/L of glutamine, 100 IU/ml of penicillin, and […] of streptomycin. Immortalized human endometriotic cell line (12Z) was generated by infecting cells, obtained from a person undergoing laparoscopy, with SV40 virus. This cell line was purchased by Applied Biological Materials Inc and was maintained in Prigrow III medium supplemented with 20% no-heat inactivated FBS, 100 IU/ml of penicillin and […] of streptomycin. Human pancreatic ductal adenocarcinoma PANC-1 cell line was purchased by Sigma Aldrich (Milan, Italy) and cultured in DMEM high glucose medium (EuroClone, Milan, Italy) supplemented with 10% FBS, 2 mM L-glutamine, 100 IU/mL penicillin, […] streptomycin and 1 mM sodium pyruvate. The human glioblastoma U251 cell line (grade IV), obtained from European Collection of Cell Cultures (ECACC, Salisbury, UK), was maintained in EMEM supplemented with 10% FBS, 2 mmol/L L-glutamine, 100 IU/mL penicillin and 100 μg streptomicin. Media were changed every 48 hours until cells were 90% confluent. All cell lines were maintained at 37 C with 5% CO2 and 95% humidity.
(§2) EC cell lines, PANC-1, U251, and 12Z (3×10^4 cells/ml) were plated in 96-well plates, in a final volume of 100 microl/well. After 24 hours, treatments or vehicles were added for 72 hours. At least six replicates were used for each treatment. At the indicated time point, cell viability was assessed by adding 0.8 mg/ml of 3-[4,5-dimethylthiazol-2-yl]-2,5 diphenyl tetrazolium bromide (MTT, Sigma-Aldrich) to the media. After 3 hours, the plates were centrifuged, the supernatant was removed, and the pellet was solubilized with 100 microl/well of DMSO. The absorbance of the samples against a background control (medium alone) was measured at 570 nm using an ELISA reader microliter plate (BioTek Instruments, Winooski, VT, United States). IC50 was calculated by PRISM 5.0a software, for single phytocannabinoids.

PCEM004A cells = test: MTT cell viability assay, primary mixed type PCEM004A endometrial cancer cell line; type: cell-based, human; conditions: 72 hours; for cytotoxicity (cell viability, % vs vehicle): phytocannabinoid alone, FIG. 5; for cytotoxicity (cell viability, % vs vehicle) in combination with chemotherapeutic drugs: with paclitaxel (PAC), doxorubicin (DOX) and cisplatin (CIS), FIG. 7-10
Protocol: as §1, §2

PANC-1 cells = test: MTT cell viability assay, PANC-1 pancreatic ductal adenocarcinoma cell line; type: cell-based, human; conditions: PANC-1, 72 hours post-treatment, FIG. 11
Protocol: as §1, §2

U251 cells = test: MTT cell viability assay, U251 glioblastoma cell line; type: cell-based, human; conditions: U251, 72 hours post-treatment, FIG. 13
Protocol: as §1, §2

[1] = test system: 12Z endometriotic cell line; test: MTT cell viability assay, 12Z endometriotic cell line; type: cell-based, human; conditions: single administration, 72 hours post-treatment, FIG. 15-20
Protocol: as §1, §2

[2] = test system: 12Z endometriotic cell line; test: Transwell invasion assay, 12Z endometriotic cells; type: cell-based, human; conditions: non-cytotoxic dose, 24 hours, Transwell/Matrigel, major effect order THC>CBG>CBD>CBDV>CBN>CBC, FIG. 22-30
Protocol: as §1
12Z cell invasion was evaluated by Transwell invasion assay using Transwell chambers (BD Biosciences, Franklin Lakes, NJ, USA) characterized by the upper face of the polycarbonate membrane covered with 1 mg/ml Matrigel. A total of 750 μl cell culture medium supplemented with 10% FBS was added in the lower chamber. Serum free culture medium ([…]) containing 2.5×10^4 12Z endometriotic cells was plated into the upper chamber with the appropriate treatment. After 24 hours of incubation, the cells remaining in the upper chamber were removed by cotton swabs. The cells on the lower and inner surface of the membrane were fixed in cold methanol, stained with hoechst and observed using a fluorescence microscope (BX51 fluorescence microscope, Olympus, Milan, Italy). A total of ten fields at ×10 magnification were selected at random to measure the average cell coverage using ImageJ software version 1.45s (National Institutes of Health, Bethesda, MD, USA). The experiments were performed in triplicate at least three times independently.

IL-33 = test: RT/PCR TaqMan array, IL-33 gene expression in 12Z cells; type: cell-based, human; conditions: 48 hours, CBG, CBC, CBN 30 microM, CBD, CBDV 10 microM, THC 40 microM
Protocol: (§3) Total RNA from untreated or single treated 12Z cell line with CBD, CBG, CBC, CBN, CBDV and THC was extracted using Rneasy Mini kit (Qiagen, Milan, Italy). One microgram of total RNA from each sample was subjected to reverse transcription in a total volume of 20 μL using the High-Capacity cDNA Archive Kit (Applied Biosystem, Foster City, PA, USA) according to the instructions. cDNAs were analyzed by qRT-PCR performed using an IQ5 Multicolor Real time PCR Detection system. Quantitative real-time gene expression was performed with the TaqMan® Array Plate, containing 15 associated cytokine genes and beta-actin as endogenous control gene, was purchased (Thermo Fisher, Grand Island, NY, USA) and used to evaluate the treatments in modulating 12Z-related genes. Measurement of housekeeping gene (beta-Actin) on the samples was used to normalize mRNA content. The gene expression levels of treated cell lines were expressed as normalized fold compared with vehicle-treated cells.

IL-1beta = test: RT/PCR TaqMan array, IL-1beta gene expression in 12Z cells; type: cell-based, human; conditions: 48 hours, CBG, CBC, CBN 30 microM, CBD, CBDV 10 microM, THC 40 microM
Protocol: as §3

CXCL8 = test: RT/PCR TaqMan array, CXCL8 gene expression in 12Z cells; type: cell-based, human; conditions: 48 hours, CBG, CBC, CBN 30 microM, CBD, CBDV 10 microM, THC 40 microM
Protocol: as §3

[3] = test system: endometrial cancer cell lines; test: MTT cell viability, endometrial cancer cell lines tested (Ishikawa and PCEM004A, stated jointly); type: cell-based, human; conditions: for dose dependence of effect on cell viability: individual phytocannabinoids
Protocol: as §1, §2

IL-6 = test: RT/PCR TaqMan array, IL-6 gene expression in 12Z cells; type: cell-based, human; conditions: 48 hours, CBG, CBC, CBN 30 microM, CBD, CBDV 10 microM, THC 40 microM
Protocol: as §3

STAT-3 = test: RT/PCR TaqMan array, STAT-3 gene expression in 12Z cells; type: cell-based, human; conditions: 48 hours, CBG, CBC, CBN 30 microM, CBD, CBDV 10 microM, THC 40 microM
Protocol: as §3

[4] = test system: type I cells and mixed type endometrial cancer cell lines; conditions: cited from earlier work

Row | Compound | cytotoxicity (cell viability, % vs vehicle) in combination (Ishikawa cells) | cytotoxicity (cell viability, % vs vehicle) (Ishikawa cells) | cytotoxicity (cell viability, % vs vehicle) in combination with chemotherapeutic drugs (Ishikawa cells) | cytotoxicity (cell viability, % vs vehicle) (PCEM004A cells) | cytotoxicity (cell viability, % vs vehicle) in combination with chemotherapeutic drugs (PCEM004A cells) | cytotoxicity (cell viability, % vs vehicle) (PANC-1 cells) | cytotoxicity (cell viability, % vs vehicle) (U251 cells) | cytotoxicity (cell viability, % vs vehicle) [1] | endometriosis cell invasion [2] | IL-33 gene expression (normalized versus vehicle) (IL-33) | IL-1beta gene expression (normalized versus vehicle) (IL-1beta) | CXCL8 gene expression (normalized versus vehicle) (CXCL8) | dose dependence of effect on cell viability ([3]; endometrial cancer cell lines) | IL-6 gene expression (normalized versus vehicle) (IL-6) | STAT-3 gene expression (normalized versus vehicle) (STAT-3) | chemotherapeutic drugs cytotoxicity ([4]; endometrial cancer cell lines) | cell viability ([4]; type I cells (cell death) and mixed type endometrial cancer cell lines (autophagy)) | efficacy in reducing cell viability (rank among individual phytocannabinoids) ([3]; endometrial cancer cell lines, order: CBN, followed by CBDV, CBG, THC and CBC) | efficacy of phytocannabinoid combinations in reducing cell viability ([3]; endometrial cancer cells, combinations of phytocannabinoids)
1 | CCCCCc1cc(O)c(C/C=C(\C)CCC=C(C)C)c(O)c1 [CBG, 2-[(2E)-3,7-dimethylocta-2,6-dienyl]-5-pentylbenzene-1,3-diol] | induced cytotoxicity | induced cytotoxicity | induced cytotoxicity | induced cytotoxicity | induced cytotoxicity | induced cytotoxicity | induced cytotoxicity | induced cytotoxicity | effective in reducing endometriosis cells invasion | reduced | reduced | reduced | dose dependent effect | – | – | – | – | – | –
2 | C=C(C)[C@@H]1CCC(C)=C[C@H]1c1c(O)cc(CCCCC)cc1O [CBD, 2-[(1R,6R)-3-methyl-6-prop-1-en-2-ylcyclohex-2-en-1-yl]-5-pentylbenzene-1,3-diol, reference compound] | – | – | – | – | – | – | – | induced cytotoxicity | effective in reducing endometriosis cells invasion | reduced | reduced | reduced | dose dependent effect | reduced | reduced | improves chemotherapeutic drugs cytotoxicity | reduces cell viability | – | –
3 | CCCCCc1cc(O)c2c(c1)OC(C)(CCC=C(C)C)C=C2 (stereo not drawn) [CBC, 2-methyl-2-(4-methylpent-3-enyl)-7-pentylchromen-5-ol] | induced cytotoxicity | induced cytotoxicity | induced cytotoxicity | induced cytotoxicity | induced cytotoxicity | induced cytotoxicity | induced cytotoxicity | induced cytotoxicity | effective in reducing endometriosis cells invasion | – | – | – | dose dependent effect | – | – | – | – | – | –
4 | CCCCCc1cc(O)c2c(c1)OC(C)(C)[C@@H]1CCC(C)=C[C@@H]21 [THC, (6aR,10aR)-6,6,9-trimethyl-3-pentyl-6a,7,8,10a-tetrahydrobenzo[c]chromen-1-ol, reference compound] | induced cytotoxicity | induced cytotoxicity | induced cytotoxicity | induced cytotoxicity | induced cytotoxicity | induced cytotoxicity | induced cytotoxicity | induced cytotoxicity | effective in reducing endometriosis cells invasion | – | – | – | dose dependent effect | reduced | – | – | – | – | –
5 | C=C(C)[C@@H]1CCC(C)=C[C@H]1c1c(O)cc(CCC)cc1O [CBDV, 2-[(1R,6R)-3-methyl-6-prop-1-en-2-ylcyclohex-2-en-1-yl]-5-propylbenzene-1,3-diol] | induced cytotoxicity | induced cytotoxicity | induced cytotoxicity | induced cytotoxicity | induced cytotoxicity | induced cytotoxicity | induced cytotoxicity | induced cytotoxicity | effective in reducing endometriosis cells invasion | reduced | – | reduced | dose dependent effect | reduced | – | – | – | – | –
6 | CCCCCc1cc(O)c2c(c1)OC(C)(C)c1ccc(C)cc1-2 [CBN, 6,6,9-trimethyl-3-pentylbenzo[c]chromen-1-ol] | induced cytotoxicity | induced cytotoxicity | induced cytotoxicity | induced cytotoxicity | induced cytotoxicity | induced cytotoxicity | induced cytotoxicity | induced cytotoxicity | effective in reducing endometriosis cells invasion | – | – | reduced | – | – | – | – | – | highest | amplified the effect of all cannabinoids
